Laboratory results reported in patent US10590118B2, “Bicyclic heterocyclic derivatives as bromodomain inhibitors” (Orion Corporation, priority 2014, dated 2020).

Molecular target: T1, Bet bromodomain protein (BRD4) (Homo sapiens, UniProt O60885)
T1 construct: made in house
Assay: Bet bromodomain TR-FRET assay
Assay type: binding
Settings: 300 nM acetyl histone peptide substrate, results given as Group A/B/C
Summary of the method: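 In-house BRD4 protein with 300 nM acetyl histone peptide in 50 mM HEPES pH 7.5, 50 mM NaCl, 500 μM CHAPS; 30 min RT, then serially diluted compound for 30 min RT. Eu-streptavidin (2 nM) and XL-665 antibody (10 nM) added for 30 min; 665/615 nm ratio read, IC50 from sigmoid dose-response fit.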

| SMILES | IC50 [nM] |
| --- | --- |
| COc1cc2c(cc1-c1c(C)noc1C)cc(C)c(=O)n2CCc1ccc(Cl)cc1 [Compound 59, 1-(4-chlorophenethyl)-6-(3,5-dimethylisoxazol-4-yl)-7-methoxy-3-methylquinolin-2(1H)-one] | ≤ 1000 |
| COc1cc2c(cc1-c1c(C)noc1C)OCC(=O)N2C(C)c1ccc(Cl)cc1 (single isomer, unassigned) [Compound 34, 4-(1-(4-chlorophenyl)ethyl)-7-(3,5-dimethylisoxazol-4-yl)-6-methoxy-2H-benzo[b][1,4]oxazin-3(4H)-one] | ≤ 1000 |
| COc1cc2c(cc1-c1c(C)noc1C)OCCN2S(=O)(=O)c1cccc(Cl)c1 [Compound 11, 4-((3-chlorophenyl)sulfonyl)-7-(3,5-dimethylisoxazol-4-yl)-6-methoxy-3,4-dihydro-2H-benzo[b][1,4]oxazine] | 1000 to 3000 |
| COc1cc2c(cc1-c1c(C)noc1C)cc(CC#N)c(=O)n2CCc1ccc(Cl)cc1 [Compound 106, 2-(1-(4-chlorophenethyl)-6-(3,5-dimethylisoxazol-4-yl)-7-methoxy-2-oxo-1,2-dihydroquinolin-3-yl)acetonitrile] | ≤ 1000 |
| COc1cc2c(cc1-c1c(C)noc1C)OCC(=O)N2C(C)c1ccncc1 (single isomer, unassigned) [Compound 20, 7-(3,5-dimethylisoxazol-4-yl)-6-methoxy-4-(1-(pyridin-4-yl)ethyl)-2H-benzo[b][1,4]oxazin-3(4H)-one] | ≤ 1000 |
| COc1cc2c(cc1-c1c(C)noc1C)OCC(=O)N2Cc1ccc(C#N)cn1 [Compound 27, 6-((7-(3,5-dimethylisoxazol-4-yl)-6-methoxy-3-oxo-2H-benzo[b][1,4]oxazin-4(3H)-yl)methyl)nicotinonitrile] | 1000 to 3000 |
| COc1cc2c(cc1-c1c(C)noc1C)OCC(=O)N2C(C)c1cccnc1 (single isomer, unassigned) [Compound 24, 7-(3,5-dimethytisoxazol-4-yl)-6-methoxy-4-(1-(pyridin-3-yl)ethyl)-2H-benzo[b][1,4]oxazin-3(4H)-one] | ≤ 1000 |
| COc1cc2c(cc1-c1c(C)noc1C)OCC(=O)N2CC1CCOCC1 [Compound 23, 7-(3,5-dimethytisoxazol-4-yl)-6-methoxy-4-((tetrahydro-2H-pyran-4-yl)methyl)-2H-benzo[b][1,4]oxazin-3(4H)-one] | ≤ 1000 |

Other lines, results leading:

| IC50 [nM] | SMILES |
| --- | --- |
| ≤ 1000 | COc1cc2c(ccc(=O)n2Cc2ccc(Cl)cc2)cc1-c1c(C)noc1C [Compound 56, 1-(4-chlorobenzyl)-6-(3,5-dimethylisoxazol-4-yl)-7-methoxyquinolin-2(1H)-one] |
| ≤ 1000 | COc1cc2c(ccc(=O)n2C(C)c2ccccn2)cc1-c1c(C)noc1C (stereo not shown) [Compound 40, 6-(3,5-dimethytisoxazol-4-yl)-7-methoxy-1-(1-(pyridin-2-yl)ethyl)quinolin-2(1H)-one] |
| > 3000 | COc1cc2c(cc1-c1c(C)noc1C)c(C(F)(F)F)cc(=O)n2Cc1ccccn1 [Compound 54, 6-(3,5-dimethytisoxazol-4-yl)-7-methoxy-1-(pyridin-2-ylmethyl)-4-(trifluoromethyl)quinolin-2(1H)-one] |
| ≤ 1000 | COc1cc2c(cc1-c1c(C)noc1C)CCC(=O)N2Cc1ccccn1 [Compound 10, 6-(3,5-dimethylisoxazol-4-yl)-7-methoxy-1-(pyridin-2-ylmethyl)-3,4-dihydroquinolin-2(1H)-one] |
| ≤ 1000 | COc1cc2c(ccc(=O)n2Cc2ccccn2)cc1-c1c(C)n[nH]c1C [Compound 66, 6-(3,5-dimethyl-1H-pyrazol-4-yl)-7-methoxy-1-(pyridin-2-ylmethyl)quinolin-2(1H)-one] |
